We go through one molecule from publication PMC3966057 (Theranostics, 2014).

SMILES strings stand for the structures.

Series [1] deals with A549 tumors. Description: 18F-DPA-714 PET imaging of A549 xenograft tumor model. It counts as in vivo, mouse. As to conditions: PET 1 h p.i., tumor volume 100-300 mm^3, athymic nude mice, mean ± SD.
Series [2] deals with U87MG tumors. The series can be described thus: 18F-DPA-714 PET imaging of U87MG xenograft tumor model. It counts as in vivo, mouse. The note with it: PET 1 h p.i., tumor volume 100-300 mm^3, athymic nude mice, mean ± SD.
The subject of series [3] is RAW264.7 cells. Description: RAW 264.7 macrophage cell efflux of 18F-DPA-714. It counts as cell-based, mouse. As to conditions: 2 h incubation with tracer.
The test system of series [4] is INS-1 tumors. Description: 18F-DPA-714 PET imaging of INS-1 xenograft tumor model. As to conditions: PET 1 h p.i., tumor volume 100-300 mm^3, athymic nude mice, mean ± SD. It counts as in vivo, mouse.
The test system of series [5] is HT29 tumors. Description: 18F-DPA-714 PET imaging of HT29 xenograft tumor model. As to conditions: PET 1 h p.i., tumor volume 100-300 mm^3, athymic nude mice, mean ± SD. Format: in vivo, mouse.
Series [6] relates to 4T1 tumors. The series can be described thus: 18F-DPA-714 PET imaging of 4T1 xenograft tumor model. Format: in vivo, mouse. As to conditions: PET 1 h p.i., tumor volume 100-300 mm^3, FVB mice, mean ± SD.

On to `CCN(CC)C(=O)Cc1c(-c2ccc(OCC[18F])cc2)nn2c(C)cc(C)nc12` [18F-DPA-714], for which the “A549 tumor uptake of 18F-DPA-714” value in series [1] is 0.46 ± 0.28 %ID/g. In addition, the “U87MG tumor uptake of 18F-DPA-714” value in series [2] was 1.69 ± 0.67 %ID/g. The “Tracer retention after 1 h efflux as share of uptake” value in series [3] is recorded as “around 50%”. In addition, in series [4], the “INS-1 tumor uptake of 18F-DPA-714” value is recorded as 1.13 ± 0.33 %ID/g. Besides, the “HT29 tumor uptake of 18F-DPA-714” value in series [5] is reported as 0.91 ± 0.08 %ID/g. The “4T1 tumor uptake of 18F-DPA-714” value in series [6] was 1.22 ± 0.55 %ID/g.
